“Also recorded” adds a separate entry of the source.
Legend:
[1] = biological target: T1, human type I GnRH receptor (Homo sapiens, UniProt P30968); assay: Radioligand binding, cell membranes expressing human type I GnRH receptor, [125I]Triptorelin; conditions: Ki ± SD, n=3; competition with [125I]Triptorelin; read-out: Receptor affinity Ki for the human GnRH receptor
T1 construct: purchased Merck Millipore
T1 sequence (P30968 1-328): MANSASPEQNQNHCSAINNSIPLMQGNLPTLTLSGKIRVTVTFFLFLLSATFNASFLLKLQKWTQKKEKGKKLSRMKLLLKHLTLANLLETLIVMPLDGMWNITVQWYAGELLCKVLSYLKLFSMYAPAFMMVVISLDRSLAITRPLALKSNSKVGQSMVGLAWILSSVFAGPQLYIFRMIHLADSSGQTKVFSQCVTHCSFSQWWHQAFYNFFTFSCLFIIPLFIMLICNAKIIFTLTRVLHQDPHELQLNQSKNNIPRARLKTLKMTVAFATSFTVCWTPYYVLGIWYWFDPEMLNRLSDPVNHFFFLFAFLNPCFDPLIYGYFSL
Procedure: Radioligand binding studies were performed with 0.18-0.32 nM [^125I]LHRH-[D-Trp^6]
Further, binding curves for of compounds SB-001-RS, SB-002-RS, SB-003-RS, and SB-004-RS for the human GnRH receptor in competition for [^125I]Triptorelin were measured (n=3) (FIG. 3).

[2] = Log D / Log P of pilot compounds, experimentally determined; assay type: physicochemical; conditions: for logP: n-octanol / phosphate-buffered saline, pilot 18F compounds
Procedure: (§1) PSA was calculated using ChemBioDraw Ultra 12.0; Clog D was experimentally determined; Ki was determined by an in vitro assay in HEK 293 cells expressing rat GnRH receptor (see below); the radiochemical yield with respect to isotope decay was corrected based on the start of synthesis, and radiochemical purity was analyzed by Radio-HPLC.
as §1, with “In Table 1, PSA” for “PSA”, “receptor;” for “receptor (see below);”, “to” for “based on”, “Radio HPLC.” for “Radio-HPLC.”
(§2) During the development of embodiments of the technology provided herein, a competitive binding assay was used to measure the binding affinity to rat GnRH receptor of the two nonradioactive reference ^19F-compounds described above. Radiolabeling was performed from [^18F]fluoride using the corresponding mesylate and chloro-precursors using K[^18F]/K222 complex in DMSO. Log P values and serum stability were investigated and their brain uptake was studied by small animal PET imaging in healthy rats.

[3] = Brain uptake by small animal PET imaging in healthy rats; assay type: in vivo, rat; conditions: for Brain uptake (in words): healthy rats
Text: In particular, PET images (e.g., 90-minute summed PET images) of the brain of a Sprague-Dawley rat injected with an [^18F] compound according to an embodiment of the technology show accumulation of the compound in the central regions of the brain.
as §2

[4] = biological target: T2, rat GnRH receptor (Rattus norvegicus, UniProt P30969); assay: Radioligand binding, membranes of HEK 293 cells expressing rat GnRH receptor, [125I] LH-RH Dtrp6
T2 construct: expressed in transfected cells; host or cells: HEK 293 cells (transient transfection, membranes prepared 48 h later)
T2 sequence (P30969 1-327): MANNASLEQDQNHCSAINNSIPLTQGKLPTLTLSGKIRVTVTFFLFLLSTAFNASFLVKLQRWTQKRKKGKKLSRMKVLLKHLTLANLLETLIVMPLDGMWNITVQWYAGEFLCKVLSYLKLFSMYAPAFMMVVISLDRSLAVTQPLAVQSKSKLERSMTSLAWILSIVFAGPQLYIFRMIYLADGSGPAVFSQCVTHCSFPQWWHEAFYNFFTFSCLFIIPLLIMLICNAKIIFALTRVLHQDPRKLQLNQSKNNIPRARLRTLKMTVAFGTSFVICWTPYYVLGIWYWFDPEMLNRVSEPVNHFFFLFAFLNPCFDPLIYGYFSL
Procedure: as §1
For the membrane preparation and radioligand binding assays, HEK 293 cells were grown in Dulbecco's modified Eagle's medium with 10% fetal bovine serum, penicillin (100 U/ml), and streptomycin (100 μg/ml), and transiently transfected with rat GnRH receptor using LipofectAMINE 2000 (Invitrogen) according to the manufacturer's protocol. 48 hours later, membranes were prepared and radioligand binding was performed as previously described (see, e.g., Krobert et al (2001) “The cloned human 5-HT7 receptor splice variants: a comparative characterization of their pharmacology, function and distribution” Naunyn Schmiedebergs Arch Pharmacol 363(6): 620-32). Radioligand binding studies were performed with 0.18-0.32 nM [^125I] […]
as §1, with “In Table 1, PSA” for “PSA”, “receptor;” for “receptor (see below);”, “to” for “based on”, “Radio HPLC. […]” for “Radio-HPLC.”

[5] = Stability in rat serum at 37° C., radio-HPLC; assay type: in vitro ADME; conditions: for % Intact 18F-compound, Serum 1 h / % Intact 18F-compound, Serum 2 h: 37° C.
Procedure: as §2
(§3) Serum and in vivo stability measurements were performed as follows. Approximately 5 MBq of ^18F compounds (e.g., peptides or small molecules) in PBS (50 μL) was added to freshly collected rat serum (0.4 mL) and samples were incubated at 37° C. in Eppendorf tubes. After 1 hour and 2 hours, ice-cold ethanol (400 μL) was added and the mixtures were centrifuged at 13,400 rpm for 10 minutes. The resulting supernatants were diluted with Solvent A and analyzed by radio-HPLC.
(§4) Also, the stabilities of the compounds were measured in rat serum and in vivo in rat blood and urine (Table 2). Table 2 provides the fraction (as a percentage of the initial amount) of compound remaining in serum, blood, or urine as a function of time (e.g., after 1 and 2 hours).

[6] = Octanol/water partition coefficient, PBS (pH 7.4)/n-octanol; assay type: physicochemical; conditions: phosphate-buffered saline (pH 7.4)/n-octanol, n=3
Procedure: Octanol/water partition coefficients were determined as follows. Approximately 10 kBq of ^18F-compounds in 50 μL PBS were diluted in 450 μL of PBS (pH 7.4) and added to 500 μL of n-octanol in an Eppendorf tube (n=3). After vortexing for 3 minutes, the tubes were centrifuged (10,300 rpm for 6 minutes) and 100 μL aliquots of the PBS and n-octanol phases were carefully transferred to separate tubes. The radioactivity of the samples was counted in a γ-counter.
Log P values were measured in a phosphate-buffered saline (pH 7.4)/n-octanol system.

[7] = In vivo stability in rat blood and urine; conditions: for % Intact 18F-compound, Blood 1 h: rat blood; for % Intact 18F-compound, Urine 1 h: rat urine
Procedure: as §3, §4

Row | Ki [1] [nM] | logP [6] | % Intact 18F-compound, Blood 1 h [7] [%] | % Intact 18F-compound, Urine 1 h [7] [%] | % Intact 18F-compound, Serum 1 h ([5]; rat serum) [%] | % Intact 18F-compound, Serum 2 h ([5]; rat serum) [%] | SMILES | further results
1 | – | 1.43 | 81 | 94.5 | >95 | 88.5 | COc1cc(NCCCF)cc(OC)c1NC(=O)c1ccc(Cc2cc3c(cc2C)CCCC3(C)C)o1 [[^18F]SB-001-RS, N-(4-((3-fluoropropyl)amino)-2,6-dimethoxyphenyl)-5-((3,8,8-trimethyl-5,6,7,8-tetrahydronaphthalen-2-yl)methyl)furan-2-carboxamide] | –
2 | – | 1.49 | 97 | 99 | 99.1 | 97.5 | COc1cc(NCCCF)cc(OC)c1NC(=O)c1ccc(Oc2cc3c(cc2C)CCC3(C)C)o1 [[^18F]SB-002-RS, N-(4-((3-fluoropropyl)amino)-2,6-dimethoxyphenyl)-5-((3,3,6-trimethyl-2,3-dihydro-1H-inden-5-yl)oxy)furan-2-carboxamide] | –
3 | – | 1.68 | 88.1 | 18.5 | >95 | 91.1 | COc1cc(OCCF)cc(OC)c1NC(=O)c1ccc(Cc2cc3c(cc2C)CCCC3(C)C)o1 [[^18F]SB-003-RS, N-(4-(2-fluoroethoxy)-2,6-dimethoxyphenyl)-5-((3,8,8-trimethyl-5,6,7,8-tetrahydronaphthalen-2-yl)methyl)furan-2-carboxamide] | –
4 | – | 1.82 | 97.5 | 99 | >95 | 97.3 | COc1cc(OCCF)cc(OC)c1NC(=O)c1ccc(Oc2cc3c(cc2C)CCC3(C)C)o1 [[^18F]SB-004-RS, N-(4-(2-fluoroethoxy)-2,6-dimethoxyphenyl)-5-((3,3,6-trimethyl-2,3-dihydro-1H-inden-5-yl)oxy)furan-2-carboxamide] | –

Second part, the molecule before the results:

Row | SMILES | Ki [1] [nM] | logP [6] | % Intact 18F-compound, Blood 1 h [7] [%] | % Intact 18F-compound, Urine 1 h [7] [%] | % Intact 18F-compound, Serum 1 h ([5]; rat serum) [%] | % Intact 18F-compound, Serum 2 h ([5]; rat serum) [%] | further results
5 | COc1cc(NCCCF)cc(OC)c1NC(=O)c1ccc(Cc2cc3c(cc2C)CCCC3(C)C)o1 [SB-001-RS, N-(4-((3-fluoropropyl)amino)-2,6-dimethoxyphenyl)-5-((3,8,8-trimethyl-5,6,7,8-tetrahydronaphthalen-2-yl)methyl)furan-2-carboxamide] | 3.7 ± 2.3 | – | – | – | – | – | –
6 | COc1cc(NCCCF)cc(OC)c1NC(=O)c1ccc(Oc2cc3c(cc2C)CCC3(C)C)o1 [SB-002-RS, N-(4-((3-fluoropropyl)amino)-2,6-dimethoxyphenyl)-5-((3,3,6-trimethyl-2,3-dihydro-1H-inden-5-yl)oxy)furan-2-carboxamide] | 1.5 ± 3.9 | – | – | – | – | – | –
7 | COc1cc(OCCF)cc(OC)c1NC(=O)c1ccc(Cc2cc3c(cc2C)CCCC3(C)C)o1 [SB-003-RS, N-(4-(2-fluoroethoxy)-2,6-dimethoxyphenyl)-5-((3,8,8-trimethyl-5,6,7,8-tetrahydronaphthalen-2-yl)methyl)furan-2-carboxamide] | 0.6 ± 0.4 | – | – | – | – | – | –
8 | COc1cc(OCCF)cc(OC)c1NC(=O)c1ccc(Oc2cc3c(cc2C)CCC3(C)C)o1 [SB-004-RS, N-(4-(2-fluoroethoxy)-2,6-dimethoxyphenyl)-5-((3,3,6-trimethyl-2,3-dihydro-1H-inden-5-yl)oxy)furan-2-carboxamide] | 2.1 ± 2.1 | – | – | – | – | – | –
9 | COc1nc(OCC[18F])nc(OC)c1NC(=O)c1ccc(Oc2cc3c(cc2C)CCC3(C)C)o1 [[^18F]SB7-65-18] | – | – | – | – | – | – | logP ([2]; pH 7.4): 1.3; logD ([2]; pH 7.4, experimentally determined, read-out: CLog D (pH 7.4)): 1.22; Brain uptake (in words) [3]: failed to show significant brain uptake; Ki [4]: 1.36 nM; Stability in rat serum ([5]; rat serum, over 2 hours): stable
10 | COc1nc([18F])nc(OC)c1NC(=O)c1ccc(Oc2cc3c(cc2C)CCC3(C)C)o1 [[^18F]SB7-65-19] | – | – | – | – | – | – | CLog D (pH 7.4) ([2]; experimentally determined): 1.33; logP ([2]; pH 7.4): 1.4; Brain uptake (in words) [3]: entered the brain and was clearly visibly by PET; also recorded: significant brain uptake; Brain (CNS) uptake ([3]; rat, at 10 minutes): 0.4 % ID/g; Ki [4]: 42 nM; half-life at 11.1 MBq/mL ([5]; rat, serum, hydrolysis of the amide bond, read-out: Serum stability t1/2): < 30 min

— patent publication US20160058895A1, “RADIOLABELED GNRH ANTAGONISTS AS PET IMAGING AGENTS” (OSLO UNIVERSITETSSYKEHUS HF, priority 2013, published 2016)
